Laboratory results as given in US20220241203A1, “METHOD FOR PRODUCTION OF LIPOSOMES” (UNIVERSIDADE DO MINHO, priority 2019, published 2022).

Test: Encapsulation efficiency of the agent in liposomes (free agent removed by gel filtration)
Format: physicochemical
Method: In an embodiment, liposomes composed of DOPE/Cholesterol/DSPE-MPEG (54:36:10, molar ratio) were prepared using the ethanolic injection method. Briefly, lipids (DOPE, cholesterol and DSPE-MPEG) were dissolved in ethanol (5% in the classic ethanol injection method; 50% in the new proposed pre-concentration method, relative to the initial 20% aqueous phase) at 60° C.
The solution was injected under stirring to an aqueous solution (phosphate buffered saline, PBS). This process is done at 70° C., remaining during the necessary time to evaporate all the ethanol volume.
In the classic ethanolic injection method liposomes are extruded to reduce their size. In the pre-concentration method, after ethanol evaporation or tangential flow filtration, liposomal dispersion is diluted five times in PBS (remaining 80% of volume is added). The free therapeutic or imaging agent that was not incorporated into liposomes was removed from the samples after passage through a gel filtration chromatography column (GE Healthcare) with 5 kDa cut-off (PD-10 Desalting Columns containing 8.3 mL of Sephadex G-25 Medium). Hydrophilic therapeutic or imaging agents (e.g. methotrexate and doxorubicin) are present in this aqueous phase in the classic ethanol injection method and in the new proposed pre-concentration method. […]

amount of the agent used that was encapsulated (before optimization of the production method): 3-5%
encapsulation efficiencies (pre-concentration method, 1:1 ethanol:aqueous phase, 2 steps): ~40%
SMILES: CN(Cc1cnc2nc(N)nc(N)c2n1)c1ccc(C(=O)N[C@@H](CCC(=O)O)C(=O)O)cc1 [methotrexate]
